Our source for the IC50 and EC50 values is US12357603B2, “Acyl sulfonamides for treating cancer” (Bayer Aktiengesellschaft, priority 2019, dated 2025).

Bounds are passed on as bounds.

Assay [1] concerns ESR1 transcription (luciferase signal in MVLN cells). Briefly: Repression of ESR1 transcription, luciferase reporter in MVLN cells. Type of assay: cell-based. The conditions noted are these: Homo sapiens, MVLN, inhibition of luciferase signal in MVLN cells; arithmetic mean. Put shortly: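 MVLN cells (constitutive ER, stably carrying a Vitellogenin A2 hormone-responsive element–luciferase reporter) treated in duplicate; luciferase read after 24 h. Cell density checked by Alamar Blue fluorescence (530/590 nm) after 2 h to exclude cell-loss effects.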
In general terms: In a reporter assay the amount or activity of a reporter protein is the signal.

The next assay relates to MDA-MB-436 cells. The assay can be described thus: Proliferation assay MDA-MB-436, negative control cell line (Alamar Blue, 144 h). Type of assay: cell-based. The conditions noted are these: Homo sapiens, MDA-MB-436, 144 h, arithmetic mean. Summed up: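 MDA-MB-436 cells (3000/well, DMEM/Ham's F12 with 2.5% FBS) treated 24 h after plating with compounds at 2.0×10E-5 to 2.0×10E-9 M (9 dilutions, 0.2% DMSO), triplicates, 144 h at 37 °C, 5% CO2. Viability by Alamar Blue, 2 h, fluorescence at 590 nm.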

The target of assay [2] is Recombinant human GST-tagged Kat6b protein (431-end). Briefly: Kat6b activity assay (TR-FRET, acetylation of biotinylated Histone-H4-derived peptide). Particulars: 30 mins at 22° C., read-out: KAT6B activity assay IC50 [mol/l] (arithmetic mean). Format: biochemical. A general note: TR-FRET usually uses a lanthanide donor and a delayed reading to cut background.
Assay [3] deals with Recombinant human His-tagged Kat6a protein (amino acids 194-810) (Homo sapiens (Human), UniProt Q92794). The assay can be described thus: Kat6a activity assay (TR-FRET, acetylation of biotinylated Histone-H4-derived peptide). Format: biochemical. Particulars: 60 mins at 22° C., read-out: KAT6A-DPF/HAT domain IC50 [mol/l] (arithmetic mean). Summed up:
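Sf9-expressed human His-Kat6a (aa 194-810) incubated 60 min at 22 °C with compounds (0.01-20 μM) in Tris pH 8 buffer containing 220 nM biotinylated H4 peptide (aa 1-24) and 600 nM acetyl-CoA. Acetyl-K8 detected by TR-FRET (665/620 nm ratio); IC50 by four-parameter fit versus DMSO controls.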

The test system of the next assay is ZR-75-1 cells. Briefly: Proliferation assay ZR-75-1 (Alamar Blue, 144 h). The conditions noted are these: Homo sapiens, ZR-75-1, 144 h, arithmetic mean, read-out: ZR75-1 proliferation assay, EC50 [M] (arithmetic mean). Format: cell-based. Summed up:
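Cells seeded at 3000/well in RPMI 1640 with 2.5% FBS and treated 24 h later across 2.0×10E-5 to 2.0×10E-9 M (9 dilutions, 0.2% DMSO, triplicate). After 144 h at 37 °C, 5% CO2, viability read by Alamar Blue fluorescence at 590 nm following 2 h reagent incubation.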
On the technique in general: The colour change of resazurin is a common sign of viable cells or microbes.

Sequence of Recombinant human His-tagged Kat6a protein (amino acids 194-810) (Q92794 194-810): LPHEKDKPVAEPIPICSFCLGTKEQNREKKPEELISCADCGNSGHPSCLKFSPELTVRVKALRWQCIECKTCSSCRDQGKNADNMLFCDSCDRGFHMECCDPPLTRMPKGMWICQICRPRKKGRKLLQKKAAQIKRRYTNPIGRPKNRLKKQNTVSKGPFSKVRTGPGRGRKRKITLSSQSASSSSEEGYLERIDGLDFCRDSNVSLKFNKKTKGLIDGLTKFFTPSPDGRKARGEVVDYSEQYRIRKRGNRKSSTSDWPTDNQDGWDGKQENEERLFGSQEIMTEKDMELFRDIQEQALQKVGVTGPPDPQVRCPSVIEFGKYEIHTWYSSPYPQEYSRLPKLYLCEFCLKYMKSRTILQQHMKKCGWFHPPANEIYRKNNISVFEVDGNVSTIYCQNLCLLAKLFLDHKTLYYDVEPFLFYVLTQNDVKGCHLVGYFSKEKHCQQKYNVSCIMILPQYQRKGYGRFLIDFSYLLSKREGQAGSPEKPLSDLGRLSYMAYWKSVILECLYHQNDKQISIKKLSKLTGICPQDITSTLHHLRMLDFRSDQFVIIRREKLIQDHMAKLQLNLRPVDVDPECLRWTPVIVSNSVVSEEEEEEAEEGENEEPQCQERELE

For the compound `CN(CC1CC1)c1ccc2cc(C(=O)NS(=O)(=O)c3ccccc3-c3ccccc3)oc2c1` [Example 40, N-([1,1′-Biphenyl]-2-sulfonyl)-6-[(cyclopropylmethyl)(methyl)amino]-1-benzofuran-2-carboxamide], the IC50 is more than 20000 nM in assay [1], 1420 nM in assay [2] and 1150 nM in assay [3]. Besides, the EC50 with MDA-MB-436 cells was more than 20 µM; in the assay on ZR-75-1 cells it was more than 2e-05 M.
The matching figures for `Cc1cc(N(C)C)cc2oc(C(=O)NS(=O)(=O)c3ccccc3-c3ccccc3)cc12` [Example 35, N-([1,1′-biphenyl]-2-sulfonyl)-6-(dimethylamino)-4-methyl-1-benzofuran-2-carboxamide]: 14900 nM, 654 nM, 452 nM, more than 20 µM and 6.03e-06 M.
Take `CC(C)COc1ccccc1S(=O)(=O)NC(=O)c1cc2ccc(N(C)C)cc2o1` [Example 76, 6-(Dimethylamino)-N-[2-(2-methylpropoxy)benzene-1-sulfonyl]-1-benzofuran-2-carboxamide]: the IC50 in assay [1] amounted to 146 nM; in assay [2] it was 190 nM; in assay [3], 88.7 nM. For the same compound, the values for the EC50 with MDA-MB-436 cells and in the assay on ZR-75-1 cells were more than 20 µM and 1.95e-07 M, respectively.
The matching figures for `Cc1ccccc1-c1ccccc1S(=O)(=O)NC(=O)c1cc2ccc(N(C)C)cc2o1` [Example 17, 6-(Dimethylamino)-N-(2′-methyl[1,1′-biphenyl]-2-sulfonyl)-1-benzofuran-2-carboxamide]: 148 nM, 64.5 nM, 72.4 nM, more than 20 µM and 3.87e-08 M.
Regarding `CN(c1ccccc1)c1ccc2cc(C(=O)NS(=O)(=O)c3ccccc3Cl)oc2c1` [Example 8, N-(2-Chlorophenyl)sulfonyl-6-(N-methylanilino)benzofuran-2-carboxamide], the IC50 in assay [1] is more than 20000 nM; in assay [2], 4400 nM; in assay [3], 5030 nM. The EC50 is more than 20 µM in the assay on MDA-MB-436 cells and more than 2e-05 M with ZR-75-1 cells.
Turning to `CCOc1cccnc1S(=O)(=O)NC(=O)c1cc2ccc(N(C)C)cc2o1` [Example 101, 6-(Dimethylamino)-N-(3-ethoxypyridine-2-sulfonyl)-1-benzofuran-2-carboxamide], the IC50 in assay [1] came to 1440 nM; in assay [2], 610 nM; in assay [3], 502 nM. For the same compound, the EC50 is more than 20 µM with MDA-MB-436 cells and 1.4e-06 M with ZR-75-1 cells.
`CCOc1cccc(C)c1S(=O)(=O)NC(=O)c1cc2ccc(N(C)C)cc2o1` [Example 116, 6-(Dimethylamino)-N-(2-ethoxy-6-methylbenzene-1-sulfonyl)-1-benzofuran-2-carboxamide]: the IC50 in assay [1] came out at 270 nM; in assay [2] it was 508 nM; in assay [3] it was 453 nM. Further, the EC50 was more than 20 µM with MDA-MB-436 cells and 3.24e-07 M in the assay on ZR-75-1 cells.
For `CC(C)Oc1ccccc1S(=O)(=O)NC(=O)c1cc2ccc(N(C)C)cc2o1` [Example 224], in that order: 31.4 nM, 76.4 nM, 58.3 nM, more than 20 µM and 5.24e-08 M.
For `CN(C)c1ccc2cc(C(=O)N[S@SP1](=O)(=O)c3cccc4ccccc34)oc2c1` [Example 20, 6-(Dimethylamino)-N-(naphthalene-1-sulfonyl)-1-benzofuran-2-carboxamide], in that order: 343 nM, 88.4 nM, 104 nM, more than 20 µM and 2.5e-07 M.
The matching figures for `CN(C)c1ccc2cc(C(=O)NS(=O)(=O)c3cc(Cl)c(Cl)cc3OC(F)(F)F)oc2c1` [Example 137, N-[4,5-Dichloro-2-(trifluoromethoxy)benzene-1-sulfonyl]-6-(dimethylamino)-1-benzofuran-2-carboxamide]: 5500 nM, 107 nM, 81.5 nM, more than 20 µM and 5.61e-06 M.
Consider `COc1ccc2cccnc2c1S(=O)(=O)NC(=O)c1cc2ccc(N(C)C)cc2o1` [Example 70, 6-(Dimethylamino)-N-(7-methoxyquinoline-8-sulfonyl)-1-benzofuran-2-carboxamide], for which the values for the IC50 in assay [1], in assay [2] and in assay [3] were 71.3 nM, 109 nM and 122 nM, respectively. Further, the values for the EC50 with MDA-MB-436 cells and in the assay on ZR-75-1 cells were more than 20 µM and 1.63e-07 M, respectively.
`CCOc1ccccc1S(=O)(=O)NC(=O)c1cc2ccc(N(C)C)cc2o1` [Example 223]: the IC50 was found to be 80.2 nM in assay [1], 99.1 nM in assay [2] and 106 nM in assay [3]. Besides, the EC50 is more than 20 µM in the assay with MDA-MB-436 cells and 5.87e-08 M in the assay with ZR-75-1 cells.
The matching figures for `CN(C)c1ccc2cc(C(=O)NS(C)(=O)=O)oc2c1` [Example 63, 6-(Dimethylamino)-N-(methanesulfonyl)-1-benzofuran-2-carboxamide]: more than 20000 nM, more than 20000 nM, 16500 nM, more than 20 µM and more than 2e-05 M.
The matching figures for `CCS(=O)(=O)NC(=O)c1cc2ccc(N(C)C)cc2o1` [Example 61, 6-(Dimethylamino)-N-(ethanesulfonyl)-1-benzofuran-2-carboxamide]: more than 20000 nM, 9850 nM, 16100 nM, more than 20 µM and 1.77e-05 M.
The matching figures for `CCN(C)c1ccc2cc(C(=O)NS(=O)(=O)c3ccccc3)oc2c1` [Example 2, N-(Benzenesulfonyl)-6-[ethyl(methyl)amino]benzofuran-2-carboxamide]: 3500 nM, 5700 nM, 4800 nM, more than 20 µM and 1.08e-05 M.
For `COc1ccc(Cl)cc1S(=O)(=O)NC(=O)c1cc2ccc(N(C)C)cc2o1` [Example 149, N-(5-chloro-2-methoxybenzene-1-sulfonyl)-6-(dimethylamino)-1-benzofuran-2-carboxamide], the IC50 in assay [1] amounted to 138 nM; in assay [2], 379 nM; in assay [3] it was 123 nM. For the same compound, the EC50 was more than 20 µM in the assay on MDA-MB-436 cells and 1.74e-07 M in the assay on ZR-75-1 cells.
The matching figures for `CN(C)c1ccc2cc(C(=O)NS(=O)(=O)c3cccc4cccnc34)oc2c1` [Example 73, 6-(Dimethylamino)-N-(quinoline-8-sulfonyl)-1-benzofuran-2-carboxamide]: 99.4 nM, 78.5 nM, 117 nM, more than 20 µM and 2.48e-07 M.
The matching figures for `CN(C)c1ccc2cc(C(=O)NS(=O)(=O)c3ccccc3Cl)oc2c1` [Example 22, N-(2-Chlorobenzene-1-sulfonyl)-6-(dimethylamino)-1-benzofuran-2-carboxamide]: 214 nM, 200 nM, 219 nM, more than 20 µM and 2.02e-07 M.
